US20250282799A1, “SUBSTITUTED PYRIDO[4,3-d]PYRIMIDINES AS KRAS MODULATORS” (Alterome Therapeutics, Inc., priority 2023, published 2025)

What follows are compounds tested on KRAS G12V dependent lung adenocarcinoma cell line, NCI-H441 (assay: Cellular pERK (Thr202/Tyr204) FRET/HTRF assay). Conditions: Homo sapiens, NCI-H441, cellular pERK (Thr202/Tyr204) HTRF, NCI-H441 cells.
Type: cell-based
Excerpt: “Ras” refers to a protein in the Ras superfamily of small GTPases, such as in the Ras subfamily. […] The Ras proteins play a critical role in the regulation of cell behaviors, including proliferation, differentiation, and survival. […] KRAS G12V, G12D, and G12S variants are common in human cancers and Ras inhibitors binding in or near the Switch II pocket may provide mutant binding selectivity. RAS mutations are known to be often associated with pancreatic, colorectal and non-small-cell lung carcinomas (Lone, A. M. et al. J. Am. Chem. Soc. 2011,133, 11665-74, which is entirely incorporated herein by reference; Dillon, M. B.; Bachovchin, D. A.; Brown, S. J.; Finn, M. G.; Rosen, H.; Cravatt, B. F.; Mowen, K. A. ACS Chem. Biol. 2012, 7, 1198-204, which is entirely incorporated herein by reference; Bachovchin, D. A.; Brown, S. J.; Rosen, H.; Cravatt, B. F. Nat. Biotechnol. 2009, 27, 387-94, Ostrem, J. M.; Peters, U.; Sos, M. L.; Wells, J. A.; Shokat, K. M. Nature 2013, 503, 548-551. Ryan M. B. and Corcoran R. B, Nat. Rev Clin Onco. 2018, 11, 709-720.). Ras proteins are key members in the Ras/Raf/Mitogen-activated protein kinase (MAPK) signaling pathway. This pathway regulates a wide variety of cellular processes, including proliferation, differentiation, apoptosis, and stress responses. One way to measure the impact of an inhibitor of Ras proteins is to measure downstream phosphorylation of proteins in the MAPK pathway. The MAPK pathway includes extracellular signal-regulated kinases named ERK1 and ERK2, which are serine-threonine kinases that regulate cellular signaling under both normal and oncogenic conditions. ERK expression and hyperactivation via phosphorylation plays a major role in cancer progression and are downstream of Ras proteins. The assay used for measuring the downstream impact of Ras inhibition is the use of a highly sensitive cell-based readout of ERK phosphorylation (pERK) specifically on Threonine (Thr) 202 and Tyrosine (Tyr) 204 in a KRAS G12V dependent lung adenocarcinoma cell line, NCI-H441 (ATCC Cat #HTB-174). The assay described herein is suitable for assessing inhibition of Ras and can be tailored for any of the predominant oncogenic mutations in any isoform of Ras (e.g., KRAS, HRAS, and NRAS) by changing the cell line.
pERK was measured using an advanced pERK assay designed for the robust and highly sensitive quantification of ERK phosphorylation on Thr202/Tyr204. This assay is intended for the simple, rapid, and direct detection of endogenous levels of ERK1/2 in cells, but only when ERK is phosphorylated at Thr202 and Tyr204 (Perkin Elmer Catalog #64AERPEH). pERK was detected in a FRET based sandwich assay format using 2 different specific antibodies, one labelled with Eu3+-Cryptate (donor) and the second with d2 (acceptor). When the dyes are in close proximity, the excitation of the donor with a light source (laser or flash lamp) triggers a Fluorescence Resonance Energy Transfer (FRET) towards the acceptor, which in turn fluoresces at a specific wavelength (665 nm). The specific signal modulates positively in proportion to p-ERK1/2 (Thr202/Tyr204). The simple mix-and-read protocol eliminates all wash steps for faster analysis and high-quality output. Briefly, cells were diluted to the desired concentration per well based on a growth curve showing ˜75% confluence within a 24-hour time period at no less than 95% viability. Cell suspension (24 μL) were added into each well of 384-well culture plate and maintained in 37° C. 5% CO2 incubator overnight prior to assay. All compounds were transferred to stock plates using TECAN (EVO200) liquid handler using DMSO as the solubilizing and dilution agent. Test compounds were transferred onto adherent cells using an Echo655 liquid handler. DMSO was employed as negative control. Cells were incubated with test compounds for 1 hr in a 37° C., 5% CO2 incubator following compound addition. […]

Compound	IC50
C#Cc1c(F)c(F)cc2cccc(-c3ncc4c(N5CCOC[C@H]6[C@H](F)[C@H]65)nc(OC[C@]56CCCN5CC(=C(F)F)C6)nc4c3F)c12 [Example 107, (1S,7S,8S)-2-(2-(((R)-2-(difluoromethylene)tetrahydro-1H-pyrrolizin-7a(5H)-yl)methoxy)-7-(8-ethynyl-6,7-difluoronaphthalen-1-yl)-8-fluoropyrido[4,3-d]pyrimidin-4-yl)-8-fluoro-5-oxa-2-azabicyclo[5.1.0]octane]	50 to 500 nM
C#Cc1c(F)ccc2cc(N)cc(-c3ncc4c(N5CCOC[C@H]6[C@H](F)[C@H]65)nc(OC[C@@]56C[C@H](C)CN5CCC65CC5)nc4c3F)c12 (single isomer, unassigned) [Example 243]	< 50 nM
[2H]C([2H])(Oc1nc(N2CCOC[C@H]3[C@H](F)[C@H]32)c2cnc(-c3cncc4ccc(F)c(C#C)c34)c(F)c2n1)[C@@]12CCCN1C[C@H](F)C2 [Example 114, (1S,7S,8S)-2-(7-(5-Ethynyl-6-fluoroisoquinolin-4-yl)-8-fluoro-2-(((2R,7aS)-2-fluorotetrahydro-1H-pyrrolizin-7a(5H)-yl)methoxy-d2)pyrido[4,3-d]pyrimidin-4-yl)-8-fluoro-5-oxa-2-azabicyclo[5.1.0]octane]	< 50 nM
[2H]C([2H])(Oc1nc(N2CCCC[C@H]3[C@H](F)[C@H]32)c2cnc(-c3cncc4ccc(F)c(C#C)c34)c(F)c2n1)[C@@]12CCCN1C[C@H](F)C2 [Example 97, 7-(5-Ethynyl-6-fluoroisoquinolin-4-yl)-8-fluoro-4-((1S,7R,8S)-8-fluoro-2-azabicyclo[5.1.0]octan-2-yl)-2-(((2R,7aS)-2-fluorotetrahydro-1H-pyrrolizin-7a(5H)-yl)methoxy-d2)pyrido[4,3-d]pyrimidine]	< 50 nM
[2H]C([2H])(Oc1nc(N2CCOC[C@H]3[C@H](F)[C@H]32)c2cc(F)c(-c3nc(N)cc(C)c3C(F)(F)F)c(F)c2n1)[C@@]12CCCN1C[C@H](F)C2 [Example 175, 6-(6,8-difluoro-4-((1S,7S,8S)-8-fluoro-5-oxa-2-azabicyclo[5.1.0]octan-2-yl)-2-(((2R,7aS)-2-fluorotetrahydro-1H-pyrrolizin-7a(5H)-yl)methoxy-d2)quinazolin-7-yl)-4-methyl-5-(trifluoromethyl)pyridin-2-amine]	50 to 500 nM
[2H]C([2H])(Oc1nc(N2CCOC[C@H]3[C@H](F)[C@H]32)c2cc(Cl)c(-c3cc(N)cc(C)c3C(F)(F)F)c(F)c2n1)[C@@]12CCCN1C[C@H](F)C2 [Example 179, 3-(6-chloro-8-fluoro-4-((1S,7S,8S)-8-fluoro-5-oxa-2-azabicyclo[5.1.0]octan-2-yl)-2-(((2R,7aS)-2-fluorotetrahydro-1H-pyrrolizin-7a(5H)-yl)methoxy-d2)quinazolin-7-yl)-5-methyl-4-(trifluoromethyl)aniline]	500 to 10000 nM
C#Cc1c(F)ccc2cc(N)cc(-c3ncc4c(N5CCOC[C@H]6[C@H](F)[C@H]65)nc(OC[C@]56C/C(=C\F)CN5CCC65CC5)nc4c3F)c12 [Example 362, 5-Ethynyl-6-fluoro-4-(8-fluoro-4-((1S,7S,8S)-8-fluoro-5-oxa-2-azabicyclo[5.1.0]octan-2-yl)-2-(((R,E)-6′-(fluoromethylene)tetrahydrospiro[cyclopropane-1,1′-pyrrolizin]-7a′(5′H)-yl)methoxy)pyrido[4,3-d]pyrimidin-7-yl)naphthalen-2-amine]	< 50 nM

Same assay, conditions: Homo sapiens, NCI-H441, cellular pERK HTRF, NCI-H441 (KRAS G12V) cells

Compound	IC50
[2H]C([2H])(Oc1nc(N2CCCC[C@H]3[C@H](F)[C@H]32)c2cnc(-c3cc(O)cc4ccc(F)c(C#C)c34)c(C)c2n1)[C@@]12CCCN1CC(=C)C2 [Example 461, 5-Ethynyl-6-fluoro-4-(4-((1S,7R,8S)-8-fluoro-2-azabicyclo[5.1.0]octan-2-yl)-8-methyl-2-(((S)-2-methylenetetrahydro-1H-pyrrolizin-7a(5H)-yl)methoxy-d2)pyrido[4,3-d]pyrimidin-7-yl)naphthalen-2-ol]	< 50 nM
[2H]C([2H])(Oc1nc(N2CCCC[C@H]3[C@H](Cl)[C@H]32)c2cnc(-c3cc(N)cc4ccc(F)c(C#C)c34)c(C)c2n1)[C@@]12CCCN1C[C@H](F)C2 [Example 464, 4-(4-((1S,7R,8S)-8-chloro-2-azabicyclo[5.1.0]octan-2-yl)-2-(((2R,7aS)-2-fluorotetrahydro-1H-pyrrolizin-7a(5H)-yl)methoxy-d2)-8-methylpyrido[4,3-d]pyrimidin-7-yl)-5-ethynyl-6-fluoronaphthalen-2-amine]	< 50 nM

Same assay, conditions: Homo sapiens, NCI-H441, pERK HTRF, NCI-H441 cells (KRAS G12V)

Compound	IC50
[2H]C([2H])(Oc1nc(N2CCC[C@H]3[C@@H](F)[C@H]32)c2cnc(-c3cc(N)cc4cc(F)c(F)c(C#C)c34)c(F)c2n1)[C@@]12CCCN1C[C@H](F)C2 [Example 64, 5-Ethynyl-6,7-difluoro-4-(8-fluoro-4-((1S,6R,7R)-7-fluoro-2-azabicyclo[4.1.0]heptan-2-yl)-2-(((2R,7aS)-2-fluorotetrahydro-1H-pyrrolizin-7a(5H)-yl)methoxy-d2)pyrido[4,3-d]pyrimidin-7-yl)naphthalen-2-amine]	500 to 10000 nM
[2H]C([2H])(Oc1nc(N2CCOC[C@H]3[C@H](F)[C@H]32)c2cnc(-c3cccc4cc(F)c(F)c(C#C)c34)c(F)c2n1)[C@@]12CCCN1C[C@H](F)C2 [Example 42, (1S,7S,8S)-2-(7-(8-Ethynyl-6,7-difluoronaphthalen-1-yl)-8-fluoro-2-(((2R,7aS)-2-fluorotetrahydro-1H-pyrrolizin-7a(5H)-yl)methoxy-d2)pyrido[4,3-d]pyrimidin-4-yl)-8-fluoro-5-oxa-2-azabicyclo[5.1.0]octane]	< 50 nM
[2H]C([2H])([2H])Oc1c(C#N)c(F)cc2cc(N)cc(-c3ncc4c(N5CCCC[C@H]6[C@H](F)[C@H]65)nc(OC([2H])([2H])[C@@]56CCCN5C[C@H](F)C6)nc4c3F)c12 [Example 50, 6-Amino-3-fluoro-8-(8-fluoro-4-((1S,7R,8S)-8-fluoro-2-azabicyclo[5.1.0]octan-2-yl)-2-(((2R,7aS)-2-fluorotetrahydro-1H-pyrrolizin-7a(5H)-yl)methoxy-d2)pyrido[4,3-d]pyrimidin-7-yl)-1-(methoxy-d3)-2-naphthonitrile]	< 50 nM

Same assay, conditions: cellular pERK (Thr202/Tyr204) HTRF, NCI-H441 cells

Compound	IC50
[2H]C([2H])(Oc1nc(N2CCOC[C@H]3[C@H](F)[C@H]32)c2cc(Cl)c(-c3cc(N)cc4ccc(F)c(C#C)c34)c(F)c2n1)[C@@]12CCCN1C[C@H](F)C2 (atropisomer, axis not shown; (aS)) [Example 359, 4-((R)-6-chloro-8-fluoro-4-((1S,7S,8S)-8-fluoro-5-oxa-2-azabicyclo[5.1.0]octan-2-yl)-2-(((2R,7aS)-2-fluorotetrahydro-1H-pyrrolizin-7a(5H)-yl)methoxy-d2)quinazolin-7-yl)-5-ethynyl-6-fluoronaphthalen-2-amine]	< 50 nM
[2H]C([2H])(Oc1nc(N2CCOC[C@H]3[C@H](F)[C@H]32)c2cc(Cl)c(-c3cc(N)cc4ccc(F)c(C#C)c34)c(F)c2n1)[C@@]12CCCN1C[C@H](F)C2 [Example 354, 4-(6-chloro-8-fluoro-4-((1S,7S,8S)-8-fluoro-5-oxa-2-azabicyclo[5.1.0]octan-2-yl)-2-(((2R,7aS)-2-fluorotetrahydro-1H-pyrrolizin-7a(5H)-yl)methoxy-d2)quinazolin-7-yl)-5-ethynyl-6-fluoronaphthalen-2-amine]	< 50 nM
